# Data published in patent publication US10653744B2, “Formulations and methods for treating ulcerative colitis” (priority 2016, dated 2020).
# Positions of bridges follow the written chain, without caps; N, C: chain ends. Non-standard residues stand in square brackets, D forms with d. No end group written: not given here.
# Columns and labels:
# [1] = system: patients with mild to moderate ulcerative colitis; experiment: Double-blind, placebo-controlled, four-week study of rectal dolcanatide in ulcerative colitis patients; format: in vivo, human; conditions: for improvement of ulcerative colitis symptoms compared with placebo-treated patients: 6 mg dissolved in saline, intra-rectally every evening for 28 days, 28 patients
# Procedure: A double-blind, placebo-controlled, four-week study evaluating 28 patients with mild-to-moderate ulcerative colitis was conducted. Patients received 6 mg Dolcanatide dissolved in saline administered intra-rectally each evening for 28 days.
# A double-blind, placebo-controlled, four week study was performed evaluating 28 patients with mild to moderate ulcerative colitis. Subjects were treated with either saline (placebo) or Dolcanatide (SP-333; SEQ ID NO: 9). Six mg of Dolcanatide was dissolved in saline and administered intra-rectally every evening for 28 days.
# [2] = system: DSS-induced acute colitis; conditions: oral treatment, murine model; cited from earlier work
# [3] = system: TNBS-induced acute colitis; conditions: oral treatment, murine model; cited from earlier work
substance,measurement,setting,value
"dAsn^1-Asp^2-Glu^3-Cys^4-Glu^5-Leu^6-Cys^7-Val^8-Asn^9-Val^10-Ala^11-Cys^12-Thr^13-Gly^14-Cys^15-dLeu^16 ([dN]DECELCVNVACTGC[dL]; disulfide 4-12, 7-15; ends not checked) [Dolcanatide]",improvement of ulcerative colitis symptoms compared with placebo-treated patients,[1],Improved Ulcerative Colitis Symptoms
same,improvement of ulcerative colitis symptoms compared with placebo-treated patients,[1]; listed as dolcanatide,clear signals of improvement
same,safety and tolerability,[1]; 6 mg intra-rectally each evening for 28 days,safe and well tolerated
same,remission from ulcerative colitis symptoms,"[1]; after 28 days of treatment, 6 mg intra-rectally every evening",in remission from their ulcerative colitis symptoms
same,effect on DSS-induced acute colitis,[2],ameliorate
same,effect on TNBS-induced acute colitis,[3],ameliorate
